Experimental data: patent publication EP0654028B1, “3- AND 5-SUBSTITUTED 1,2,3,4-OXATRIAZOLE-5-IMINE COMPOUNDS, A PROCESS FOR THE PREPARATION THEREOF, A PHARMACEUTICAL PREPARATION CONTAINING SAID COMPOUNDS AND THE USE OF SAID COMPOUNDS FOR THE PREPARATION OF MEDICAMENTS” (A/S GEA Farmaceutisk Fabrik, priority 1992, dated 1994)
pIC50: −log10 of the molar value.

System: blood platelets (thrombocytes)
Test: Inhibition of ADP-induced blood platelet aggregation in platelet-rich plasma (aggregometer measurement, Born)
Format: cell-based, healthy testees
Conditions: not given

Row | SMILES | inhibition of blood platelet aggregation (result in words)
1 | O=[N+]([O-])OCC(CO[N+](=O)[O-])O[N+](=O)[O-] [GTN, nitroglycerine, reference compound] | inactive

Same assay, conditions: PRP from citrate stabilized venous blood, 37°C, test substance incubated three minutes, ADP 2 to 4 µM as pro-aggregating substance; linear regression; read-out: IC₅₀

Row | SMILES | pIC50
2 | Cc1c(Cl)cccc1-[n+]1noc([N-]C(=O)NS(=O)(=O)c2ccccc2)n1 [Example 1, 3-(3-chloro-2-methylphenyl)-1,2,3,4-oxatriazole-5-(N-phenylsulphonylcarbamoyl) imine] | 6.31
3 | CC(=O)Nc1nc(C)c(S(=O)(=O)[N-]c2n[n+](-c3cccc(Cl)c3C)no2)s1 [Example 2, 3-(3-chloro-2-methylphenyl)-1,2,3,4-oxatriazole-5-(N-2-acetamido-4-methyl-5-thiazolesulphamoyl)imine] | 6.43
4 | CC(=O)Nc1ccc(S(=O)(=O)[N-]c2n[n+](-c3cccc(Cl)c3C)no2)cc1 [Example 3, 3-(3-chloro-2-methylphenyl)-1,2,3,4-oxatriazole-5-(N-4-acetylaminophenylsulphamoyl)imine] | 6.00
5 | Cc1c(Cl)cccc1-[n+]1noc([N-]S(=O)(=O)C[C@]23CCC(CC2=O)C3(C)C)n1 [Example 4, 3-(3-chloro-2-methylphenyl)-1,2,3,4-oxatriazole-5-(N-(1S)-(+)-10-camphorylsulphamoyl)imine] | 7.10
6 | CCOC(=O)c1ccc(NC(=O)[N-]c2n[n+](-c3cccc(Cl)c3C)no2)cc1 [Example 5, 3-(3-chloro-2-methylphenyl)-1,2,3,4-oxatriazole-5-(N-4-carbethoxyphenylcarbamoyl)imine] | 5.53
7 | CCOC(=O)NC(=O)[N-]c1n[n+](-c2cccc(Cl)c2C)no1 [Example 7, 3-(3-chloro-2-methylphenyl)-1,2,3,4-oxatriazole-5-(N-carbethoxy-carbamoyl)imine] | 6.80
8 | CCOC(=O)CNC(=O)[N-]c1n[n+](-c2cccc(Cl)c2C)no1 [Example 8, 3-(3-chloro-2-methylphenyl)-1,2,3,4-oxatriazole-5-(N-carbethoxymethylcarbamoyl)imine] | 5.12
9 | CCOC(=O)C(Cc1ccccc1)NC(=O)[N-]c1n[n+](-c2cccc(Cl)c2C)no1 (stereo not shown) [Example 9, 3-(3-chloro-2-methylphenyl)-1,2,3,4-oxatriazole-5(N-2-carbamoyl-3-phenylpropionic acid ethyl ester)imine] | 5.10
10 | COC(=O)C(C)NC(=O)[N-]c1n[n+](-c2cccc(Cl)c2C)no1 (stereo not shown) [Example 10, 3-(3-chloro-2-methylpheny1)-1,2,3,4-oxatriazole-5-(N-2-carbamoylpropionic acid methyl ester)imine] | 5.64
11 | [NH-]c1c[n+](N2CCOCC2)no1 [SIN-1, reference compound] | 5.41

Same assay, conditions: read-out: IC₅₀

Row | SMILES | pIC50
12 | COc1ccc(S(=O)(=O)NC(=O)[N-]c2n[n+](-c3cccc(Cl)c3C)no2)cc1 [Example 6, 3-(3-chloro-2-methylphenyl)-1,2,3,4-oxatriazole-5-(N-4-methoxy-phenylsulphonylcarbamoyl)imine] | 6.17
13 | O=[N+]([O-])OCC(CO[N+](=O)[O-])O[N+](=O)[O-] [GTN, nitroglycerine, reference compound] | 4.00
